# According to publication PMC11992225, “Antibacterial compounds against non-growing and intracellular bacteria” (npj Antimicrobials and Resistance, 2025):
# Where two headings read alike, the source gives them in different places.
# Tests used:
# [1] = tested on: P. aeruginosa DSM1117; experiment: MIC, standard microdilution assay, growing P. aeruginosa; format: cell-based, Pseudomonas aeruginosa; conditions: Pseudomonas aeruginosa, DSM1117, P. aeruginosa
# In short: (§1)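 Broth microdilution was used throughout. UPEC, P. aeruginosa and S. aureus were tested in CA-MHB buffered with 40 mM HEPES (pH 7.4); UPEC was additionally tested in LPM with 30 mM MES (pH 5.5). S. flexneri was grown in TSB. All determinations were run in triplicate.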
# [2] = tested on: non-growing UPEC CFT073; experiment: Dilution-regrowth assay (screen, hit validation, dose-response) on stationary-phase UPEC; format: cell-based, Escherichia coli; conditions: for EC50: Escherichia coli, E. coli, regrowth delay of non-growing bacteria, 24 h treatment, OD600 6 h after 2500-fold dilution, read-out: EC50; for Regrowth, OD600 at 6h or 8h after dilution into drug-free medium: average
# In short: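 Regrowth (OD600 after 6 h, 37 °C) of diluted non-growing CFT073, following 24 h compound treatment of 24 h stationary cultures, defines activity relative to untreated control. Screen at 20 µM, validation at 20, 10, 5 µM (duplicates), dose–response in three biological replicates fitted by five-parameter logistic.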
# [3] = tested on: S. aureus DSM2569; experiment: MIC, standard microdilution assay, growing S. aureus; format: cell-based, Staphylococcus aureus; conditions: Staphylococcus aureus, DSM2569; S. aureus; CA-MHB pH 7.4; read-out: MIC (μM) CA-MHB
# In short: as §1
# [4] = tested on: S. flexneri 5a M90T; experiment: MIC in tryptic soy broth, S. flexneri; format: cell-based, Shigella flexneri; conditions: Shigella flexneri, 5AM90T, read-out: MIC (μM) TSB
# In short: as §1
# [5] = tested on: non-growing P. aeruginosa DSM1117; experiment: Dilution-regrowth assay (OD600, start-growth-time) on stationary-phase P. aeruginosa; format: cell-based, Pseudomonas aeruginosa; conditions: P. aeruginosa; for EC50: Pseudomonas aeruginosa, DSM1117, regrowth delay of non-growing bacteria, 1:4 CA-MHB pH 7.4, 24 h treatment, OD600 8 h after dilution, read-out: EC50; for Regrowth, OD600 at 6h or 8h after dilution into drug-free medium: average
# Experimental: To determine the spectrum of activity of the compounds that were effective against non-growing UPEC, we further assessed their efficacy against the well-characterized Gram-negative and Gram-positive reference strains P. aeruginosa DSM1117 and S. aureus DSM2569, respectively. The cultures were grown and treated for 24 h in 1:4 CA-MHB (pH 7.4). […].
# For better characterization of the compounds causing the strongest regrowth delay, we performed the regrowth step of the dilution-regrowth experiments on a plate reader, measuring the OD600 at 20-min intervals for over 20 h instead of using an endpoint measurement. This approach allowed us to capture the time when cultures reached a threshold optical density (start-growth-time, SGT[15]).
# Overnight cultures of UPEC, P. aeruginosa and S. aureus were grown in test tubes containing 3 ml of LB broth (~16 h), then diluted 1:100 into either 1:4 diluted CA-MHB medium buffered with 40 mM HEPES (pH 7.4) or, in case of UPEC, into LPM medium[25] supplemented with 49 µM MgCl2 and buffered with 30 mM MES (pH 5.5). The cultures were incubated for 24 h in non-baffled Erlenmeyer flasks at 37 °C with shaking at 200 rpm.
# For P. aeruginosa and S. aureus, dose–response analysis was conducted in 96-well plates with a 200 μl assay volume, following the procedure used for screening assay validation experiments. Aliquots of the 39 compounds active against non-growing UPEC were obtained from SelleckChem and MedChem Express. Stock solutions were prepared and stored according to the manufacturers’ instructions, then diluted in 10% DMSO before use. Cultures were incubated for 24 h in 1:4 diluted CA-MHB medium under the same conditions used for UPEC cultivation. In preliminary experiments, each compound was tested at a concentration of 20 μM in the dilution-regrowth assay with 4 technical replicates. Regrowth was monitored using a microplate reader at 37 °C with continuous shaking, and OD600 was recorded every 20 min. The time at which OD600 exceeded the threshold of 0.12 was recorded as the Start_Growth-Time.
# The statistical analysis of all data, as well as EC50 and IC50 determination, was conducted using GraphPad Prism 10.2.3. Statistical significance of the drug effects was assessed using a one-way ANOVA followed by Dunnett’s test, comparing each treatment to the drug-free control. Statistical significance of the differences in chemical characteristics between the hit compounds and the Prestwick library was assessed using a Mann–Whitney test. Statistical significance was set at P ≤ 0.05. A five-parameter logistic equation was used for asymmetric sigmoidal curve fitting and for EC50 and IC50 determination. The Venn diagram in Fig. 1F was prepared using BioVenn web application. Characteristics of the chemical and physical properties of Prestwick library compounds were obtained from Supplementary Table S1 from reference. Characteristics of the hit compounds not included in the Prestwick library were retrieved from the PubChem database.
# [6] = tested on: E. coli CFT073 (UPEC); experiment: MIC, standard microdilution assay, growing UPEC; format: cell-based, Escherichia coli; conditions: Escherichia coli, E. coli
# In short: as §1
# [7] = 1:4 diluted CA-MHB pH 7.4, read-out: MIC (μM) 1:4 CA-MHB
# [8] = CA-MHB pH 7.4, read-out: MIC (μM) CA-MHB
# [9] = pH 7.4, CA-MHB, read-out: MIC (μM) CA-MHB
smiles,measurement,setting,value
CN1CCN(c2cc3c(cc2F)c(=O)c(C(=O)O)cn3-c2ccc(F)cc2)CC1 [Difloxacin],MIC,[1]; [7],8 µM
same,MIC,[1]; [8],8 µM
same,EC50,[2]; LPM pH 5.5,9.95 µM
same,EC50,"[2]; pH 7.4, 1:4 CA-MHB",6.46 µM
same,MIC,[3],1 µM
same,MIC,[4],0.25 µM
same,EC50,[5],2360 nM
same,MIC,"[6]; LPM pH 5.5, read-out: MIC",0.0625 µM
same,MIC,[6]; [9],0.25 µM
CCN1CCN(c2cc3c(cc2F)c(=O)c(C(=O)O)cn3C2CC2)CC1 [Enrofloxacin],MIC,[1]; [7],4 µM
same,MIC,[1]; [8],4 µM
same,EC50,[2]; LPM pH 5.5,21.5 µM
same,EC50,"[2]; pH 7.4, 1:4 CA-MHB",5.17 µM
same,MIC,[3],0.5 µM
same,MIC,[4],0.0625 µM
same,EC50,[5],690 nM
same,MIC,"[6]; LPM pH 5.5, read-out: MIC",0.125 µM
same,MIC,[6]; [9],0.1 µM
C[C@H]1NCc2cc(-c3ccc4c(=O)c(C(=O)O)cn(C5CC5)c4c3OC(F)F)ccc21 [Garenoxacin],MIC,[1]; [7],4 µM
same,MIC,[1]; [8],4 µM
same,EC50,"[2]; pH 7.4, 1:4 CA-MHB",2.19 µM
same,MIC,[3],0.125 µM
same,MIC,[4],0.0625 µM
same,EC50,[5],978 nM
same,MIC,"[6]; LPM pH 5.5, read-out: MIC",0.125 µM
same,MIC,[6]; [9],0.125 µM
COc1c(N2CCNC(C)C2)c(F)cc2c(=O)c(C(=O)O)cn(C3CC3)c12 (centres unmarked) [Gatifloxacin],MIC,[1]; [7],4 µM
same,MIC,[1]; [8],4 µM
same,EC50,"[2]; pH 7.4, 1:4 CA-MHB",0.709 µM
same,MIC,[3],0.5 µM
same,MIC,[4],0.0312 µM
same,EC50,[5],182 nM
same,MIC,[6]; [9],0.125 µM
CO/N=C1\CN(c2nc3c(cc2F)c(=O)c(C(=O)O)cn3C2CC2)CC1CN (centres unmarked) [Gemifloxacin],MIC,[1]; [7],2 µM
same,MIC,[1]; [8],1 µM
same,"Regrowth, OD600 at 6h or 8h after dilution into drug-free medium","[2]; E. coli in 1:4 CA-MHB (pH 7.4), concentration 0.25",0.556
same,"Regrowth, OD600 at 6h or 8h after dilution into drug-free medium","[2]; E. coli in 1:4 CA-MHB (pH 7.4), concentration 0.5",0.511
same,"Regrowth, OD600 at 6h or 8h after dilution into drug-free medium","[2]; E. coli in 1:4 CA-MHB (pH 7.4), concentration 1",0.206
same,"Regrowth, OD600 at 6h or 8h after dilution into drug-free medium","[2]; E. coli in 1:4 CA-MHB (pH 7.4), concentration 2.5",0.090
same,"Regrowth, OD600 at 6h or 8h after dilution into drug-free medium","[2]; E. coli in 1:4 CA-MHB (pH 7.4), concentration 5",0.086
same,"Regrowth, OD600 at 6h or 8h after dilution into drug-free medium","[2]; E. coli in 1:4 CA-MHB (pH 7.4), concentration 10",0.083
same,"Regrowth, OD600 at 6h or 8h after dilution into drug-free medium","[2]; E. coli in 1:4 CA-MHB (pH 7.4), concentration 30",0.082
same,"Regrowth, OD600 at 6h or 8h after dilution into drug-free medium","[2]; E. coli in LPM (pH 5.5), concentration 0.25",0.559
same,"Regrowth, OD600 at 6h or 8h after dilution into drug-free medium","[2]; E. coli in LPM (pH 5.5), concentration 0.5",0.564
same,"Regrowth, OD600 at 6h or 8h after dilution into drug-free medium","[2]; E. coli in LPM (pH 5.5), concentration 1",0.562
same,"Regrowth, OD600 at 6h or 8h after dilution into drug-free medium","[2]; E. coli in LPM (pH 5.5), concentration 2.5",0.529
same,"Regrowth, OD600 at 6h or 8h after dilution into drug-free medium","[2]; E. coli in LPM (pH 5.5), concentration 5",0.513
same,"Regrowth, OD600 at 6h or 8h after dilution into drug-free medium","[2]; E. coli in LPM (pH 5.5), concentration 10",0.417
same,"Regrowth, OD600 at 6h or 8h after dilution into drug-free medium","[2]; E. coli in LPM (pH 5.5), concentration 30",0.143
same,EC50,"[2]; pH 7.4, 1:4 CA-MHB",0.752 µM
same,MIC,[3],0.125 µM
same,MIC,[4],0.0156 µM
same,"Regrowth, OD600 at 6h or 8h after dilution into drug-free medium",[5]; concentration 0.1,0.486
same,"Regrowth, OD600 at 6h or 8h after dilution into drug-free medium",[5]; concentration 0.5,0.138
same,"Regrowth, OD600 at 6h or 8h after dilution into drug-free medium",[5]; concentration 2.5,0.091
same,"Regrowth, OD600 at 6h or 8h after dilution into drug-free medium",[5]; concentration 10,0.090
same,EC50,[5],165 nM
same,MIC,"[6]; LPM pH 5.5, read-out: MIC",0.25 µM
same,MIC,[6]; [9],0.025 µM
